Measurements taken from the supplement of paper PMC10307832.

Assays:
Assay in all cases: relative viability (nuclei count vs DMSO), 5 days (fraction); higher = more cells survive
GW-2580 + Olaparib = compound: COC1=CC=C(C=C1)COC2=C(C=C(C=C2)CC3=CN=C(N=C3N)N)OC [GW-2580] + O=C(c1cc(Cc2n[nH]c(=O)c3ccccc23)ccc1F)N1CCN(C(=O)C2CC2)CC1 [Olaparib] (partner 8 µM)
In short: (§1)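 Cells from lung cancer lines were seeded into 1536-well plates and, one day later, dosed by pin tool. Treatments were either a single drug or a fixed dose of an anchor drug with five library-drug doses (not always all listed) in √10 steps. After 5 days, nuclei were stained in a one-step fixation (final 0.05% Triton X-100, 1% formaldehyde, 1 ug/ml Hoechst) and counted on 4× images, and relative viability is the treated-to-vehicle nuclei ratio, as the median of duplicate plates.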

GW-2580 + Lapatinib = compound: COC1=CC=C(C=C1)COC2=C(C=C(C=C2)CC3=CN=C(N=C3N)N)OC [GW-2580] + CS(=O)(=O)CCNCc1ccc(-c2ccc3ncnc(Nc4ccc(OCc5cccc(F)c5)c(Cl)c4)c3c2)o1 [Lapatinib] (partner 2 µM)
In short: as §1

GW-2580 + Foretinib = compound: COC1=CC=C(C=C1)COC2=C(C=C(C=C2)CC3=CN=C(N=C3N)N)OC [GW-2580] + COc1cc2c(Oc3ccc(NC(=O)C4(C(=O)Nc5ccc(F)cc5)CC4)cc3F)ccnc2cc1OCCCN1CCOCC1 [Foretinib] (partner 0.25 µM)
In short: as §1

GW-2580 + Linsitinib = compound: COC1=CC=C(C=C1)COC2=C(C=C(C=C2)CC3=CN=C(N=C3N)N)OC [GW-2580] + C[C@]1(O)C[C@@H](c2nc(-c3ccc4ccc(-c5ccccc5)nc4c3)c3c(N)nccn32)C1 [Linsitinib] (partner 1 µM)
In short: as §1

GW-2580 + Tozasertib = compound: COC1=CC=C(C=C1)COC2=C(C=C(C=C2)CC3=CN=C(N=C3N)N)OC [GW-2580] + Cc1cc(Nc2cc(N3CCN(C)CC3)nc(Sc3ccc(NC(=O)C4CC4)cc3)n2)n[nH]1 [Tozasertib] (partner 0.1 µM)
In short: as §1

| Cell Line | relative viability (GW-2580 + Olaparib; first compound 0.08 µM) | relative viability (GW-2580 + Olaparib; first compound 0.8 µM) | relative viability (GW-2580 + Olaparib; first compound 2.53 µM) | relative viability (GW-2580 + Olaparib; first compound 8 µM) | relative viability (GW-2580 + Lapatinib; first compound 0.08 µM) | relative viability (GW-2580 + Lapatinib; first compound 0.8 µM) | relative viability (GW-2580 + Lapatinib; first compound 2.53 µM) | relative viability (GW-2580 + Lapatinib; first compound 8 µM) | relative viability (GW-2580 + Foretinib; first compound 0.08 µM) | relative viability (GW-2580 + Foretinib; first compound 0.8 µM) | relative viability (GW-2580 + Foretinib; first compound 2.53 µM) | relative viability (GW-2580 + Foretinib; first compound 8 µM) | relative viability (GW-2580 + Linsitinib; first compound 0.08 µM) | relative viability (GW-2580 + Linsitinib; first compound 0.8 µM) | relative viability (GW-2580 + Linsitinib; first compound 2.53 µM) | relative viability (GW-2580 + Linsitinib; first compound 8 µM) | relative viability (GW-2580 + Tozasertib; first compound 0.08 µM) | relative viability (GW-2580 + Tozasertib; first compound 0.8 µM) | relative viability (GW-2580 + Tozasertib; first compound 2.53 µM) | relative viability (GW-2580 + Tozasertib; first compound 8 µM) |
| --- | --- | --- | --- | --- | --- | --- | --- | --- | --- | --- | --- | --- | --- | --- | --- | --- | --- | --- | --- | --- |
| RERF-LC-KJ | 1 | 1.04 | 0.888 | 0.861 | 0.895 | 0.909 | 0.736 | 0.884 | 0.896 | 0.911 | 0.842 | 0.765 | 0.946 | 0.939 | 0.816 | 0.815 | 0.474 | 0.593 | 0.508 | 0.367 |
| NCI-H1650 | 0.704 | 0.951 | 0.719 | 0.774 | 0.822 | 0.895 | 0.677 | 0.781 | 1.29 | 1.43 | 1.19 | 1.05 |  |  |  |  | 0.455 | 0.543 | 0.452 | 0.363 |
| BEN | 0.877 | 1.12 | 1.03 | 0.962 | 0.642 | 0.795 | 0.481 | 0.709 | 0.61 | 0.731 | 0.406 | 0.674 | 1.08 | 1.04 | 0.816 | 0.93 | 0.684 | 0.396 | 0.577 | 0.492 |
| EMC-BAC-2 | 0.477 | 0.514 | 0.429 | 0.462 | 0.909 | 0.95 | 0.84 | 0.901 | 1.13 | 1.11 | 1.04 | 0.865 | 0.839 | 0.876 | 0.727 | 0.875 | 0.279 | 0.261 | 0.24 | 0.261 |
| LU99A | 0.259 | 0.264 | 0.261 | 0.269 | 1.07 | 1.14 | 0.698 | 1.01 | 0.834 | 0.944 | 0.724 | 0.881 | 0.749 | 0.57 | 0.427 | 0.517 | 0.27 | 0.294 | 0.23 | 0.235 |
| NCI-H2170 | 0.616 | 0.702 | 0.569 | 0.574 | 0.26 | 0.258 | 0.261 | 0.274 | 1.05 | 0.957 | 0.958 | 1.04 |  |  |  |  | 1.04 | 0.816 | 0.777 | 0.677 |
| NCI-H1299 | 1.05 | 0.965 | 0.922 | 0.876 | 1.04 | 0.979 | 0.959 | 0.886 | 1.17 | 1.09 | 0.981 | 0.971 | 1.09 | 0.969 | 0.952 | 0.907 |  |  |  |  |
| EBC-1 | 0.837 | 0.734 | 0.664 | 0.59 | 0.193 | 0.219 | 0.214 | 0.21 | 0.0973 | 0.114 | 0.107 | 0.0908 | 1.27 | 0.991 | 0.871 | 0.743 |  |  |  |  |
| NCI-H1648 | 1.34 |  | 0.666 | 0.764 |  |  |  |  |  |  |  |  |  |  |  |  | 0.427 |  |  | 0.429 |
| NCI-H1792 | 0.596 | 0.929 | 0.255 | 0.44 | 0.936 | 1.1 | 0.484 | 1.1 |  |  |  |  | 0.684 | 0.569 | 0.263 | 0.592 |  |  |  |  |
| ChaGo-K-1 | 0.423 | 0.457 | 0.388 | 0.393 |  |  |  |  | 0.994 | 0.965 | 0.924 | 0.881 |  |  |  |  | 0.257 | 0.224 | 0.233 | 0.234 |
| HCC-44 | 1.04 | 1.05 | 1.04 | 1.03 | 1.12 | 1.06 | 0.923 | 1.04 |  |  |  |  | 0.736 | 0.759 | 0.628 | 0.687 | 1.13 | 0.913 | 0.937 | 0.918 |
| A549 | 0.396 | 0.527 | 0.267 | 0.301 | 1.11 | 1.04 | 0.89 | 0.869 | 1.01 | 0.577 | 1.06 | 0.902 | 0.678 | 0.701 | 0.501 | 0.602 |  |  |  |  |
| NCI-H1563 |  |  |  |  | 0.895 | 0.857 | 0.831 | 0.863 | 0.886 | 0.961 | 0.886 | 0.905 | 1.19 | 1.27 | 1.1 | 1.08 |  |  |  |  |
| NCI-H522 | 0.623 | 0.608 | 0.611 | 0.602 |  |  |  |  |  |  |  |  |  |  |  |  | 0.551 | 0.579 | 0.318 | 0.541 |
| IA-LM | 0.844 | 1 | 0.853 | 0.756 | 0.997 | 0.862 | 0.572 | 0.876 | 1.17 | 1.28 | 1.26 | 0.952 | 0.693 | 1.29 | 0.55 | 0.319 |  |  |  |  |
| NCI-H1703 | 0.418 | 0.43 | 0.412 | 0.363 | 1.1 | 1.32 | 1.2 | 0.946 | 0.404 | 0.378 | 0.346 | 0.342 | 0.879 | 1.1 | 0.712 | 0.716 |  |  |  |  |
| NCI-H441 | 0.644 | 0.582 | 0.555 | 0.585 |  |  |  |  | 1.03 | 1.16 | 1.06 | 1.1 | 0.425 | 0.763 | 0.351 | 0.625 | 0.698 | 0.704 | 0.584 | 0.655 |
| LCLC-103H | 0.799 | 0.895 | 0.733 | 0.736 |  |  |  |  | 0.979 | 0.865 | 0.83 | 0.676 | 1.07 | 1.45 | 1.08 | 1.09 | 0.555 | 0.432 | 0.484 | 0.396 |
| SW 900 | 0.864 | 1.03 | 0.994 | 0.747 |  |  |  |  | 0.831 | 0.905 | 1.37 | 0.878 |  |  |  |  | 0.572 | 0.559 | 0.6 | 0.559 |
